Reference: patent US7591995B2, “Cobalamin conjugates useful as imaging and therapeutic agents” (Mayo Foundation for Medical Education and Research, priority 1999, dated 2009)

What was measured:
[1] = system: unsaturated B12 binding capacity (UBBC); details: relative to cyanocobalamin
[2] = Specific activity of radiolabeled cobalamin DTPA conjugates; details: poly-DTPA complex, increased versus mono-DTPA compounds
[3] = system: unsaturated B12 binding capacity (UBBC); details: relative to cyanocobalamin; J. Nucl. Med. 38, 717-723 (1997), US 5,739,313; cited from earlier work

Substance	in vitro biological activity (UBBC) when compared to cyanocobalamin [1] [%]	specific activity [2] [mCi]	in vitro biological activity (UBBC), comparison to cyanocobalamin [3] [%]
cyanocobalamin-poly-L-lysine	92	–	–
cyanocobalamin-poly-L-lysine-polyDTPA	43.4	4.5	–
cyanocobalamin-DTPA	–	–	66.4
